# Measured values as given in patent publication US10633419B2, “Immunomodulators” (BRISTOL-MYERS SQUIBB COMPANY, priority 2014, dated 2020).
# Starred links: 1 amine or outer side, 2 acyl side, 3 side chain; linkers in the order of their positions; H or OH if unused. Positions of bridges follow the written chain, without caps; N, C: chain ends. Non-standard residues stand in square brackets, D forms with d. Residues, ends and D or L forms follow the SMILES beside them. Groups on a side chain read outwards from the residue. *: point of attachment. εLys(α-Octadecanedioyl) = O=C(O)CCCCCCCCCCCCCCCCC(=O)N[C@@H](CCCCN*)C(=O)O; X6 = O=C(O)CCCCCCCCCCCCCCCCC(=O)N[C@@H](CCC(=O)NCCCOCCOCCOCCCN*)C(=O)O; Trp(1-CH2COOH) = N[C@@H](Cc1cn(CC(=O)O)c2ccccc12)C(=O)O; X9 = O=C(O)CCCCCCCCCCCCCCCCC(=O)N[C@@H](CCN*)C(=O)O; C18 diacid = O=C(O)CCCCCCCCCCCCCCCCC(=O)*; γGlu = O=C(O)[C@H](CCC(=O)[*:2])N[*:1]; d(cisHyp) = O=C(O)[C@H]1C[C@@H](O)CN1; Bta = N[C@@H](Cc1csc2ccccc12)C(=O)O; PEG6 = NCCOCCOCCOCCOCCOCCOCCC(=O)O; Aha = [N-]=[N+]=NCC[C@H](N)C(=O)O; Palmitoyl = CCCCCCCCCCCCCCCC(=O)*; Hyp = O=C(O)[C@@H]1C[C@@H](O)CN1; Undecanoyl = CCCCCCCCCCC(=O)*; NMeNle = CCCC[C@H](NC)C(=O)O; Pip = O=C(O)[C@@H]1CCCCN1; NMeA = CN[C@@H](C)C(=O)O; Aun = NCCCCCCCCCCC(=O)O; Dab = NCC[C@H](N)C(=O)O; Dap = NC[C@H](N)C(=O)O
# Target: T1, PD-L1 (Homo sapiens, UniProt Q9NZQ7)
# T1 construct: hPDL1(19-239)-TVMV-His; made in house; host or cells: HEK293T
# T1 sequence (Q9NZQ7 with tags, fused parts or gaps): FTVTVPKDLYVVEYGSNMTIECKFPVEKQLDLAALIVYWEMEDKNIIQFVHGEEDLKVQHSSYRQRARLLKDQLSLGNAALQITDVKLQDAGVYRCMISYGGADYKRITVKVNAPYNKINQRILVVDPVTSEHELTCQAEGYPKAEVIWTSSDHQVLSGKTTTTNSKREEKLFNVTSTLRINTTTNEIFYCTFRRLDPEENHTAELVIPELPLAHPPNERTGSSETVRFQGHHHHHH
# Assay: PD-1/PD-L1 Homogenous Time-Resolved Fluorescence (HTRF) binding assay (PD-1-Ig/PD-L1-His)
# Details: inhibition of PD-1-Ig binding to PD-L1-TVMV-His; value given as number; read-out: HTRF IC50
# Summary of the method: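 Inhibitors pre-incubated 15 min with PD-L1-His (10 nM final), then PD-1-Ig (20 nM final) added for 15 min in dPBS/0.1% BSA/0.05% Tween-20. Eu-cryptate anti-Ig (1 nM) and APC anti-His (20 nM) added, 30 min equilibration, 665/620 nm HTRF ratio read.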
row,SMILES,IC50
1,CCCC[C@H]1C(=O)N(C)[C@@H](CCCC)C(=O)N[C@@H](CC(C)C)C(=O)N[C@H](C(=O)NCC(=O)NCC(=O)NCC(=O)NCCCCCCCCCCC(=O)O)CSCC(=O)N[C@@H](Cc2ccc(O)cc2)C(=O)N(C)[C@@H](C)C(=O)N[C@@H](CCC(=O)O)C(=O)N2CCC[C@H]2C(=O)N[C@@H](Cc2cnc[nH]2)C(=O)N[C@@H](CCCCN)C(=O)N2C[C@H](O)C[C@H]2C(=O)N[C@@H](Cc2c[nH]c3ccccc23)C(=O)N[C@@H](CCCCN)C(=O)N[C@@H](Cc2cn(CC(=O)O)c3ccccc23)C(=O)N1C [Example 11092] ({CH2CO}-Y[NMeA]EPHK[Hyp]WK[Trp(1-CH2COOH)][NMeNle][NMeNle]LCGGG[Aun]-OH; thioether N-14),13.5 nM

# Same assay, conditions: inhibition of PD-1-Ig binding to PD-L1-TVMV-His; value given as range class; read-out: HTRF IC50
row,SMILES,IC50
1,CCCC[C@H]1C(=O)N(C)[C@@H](CCCC)C(=O)N[C@@H](CC(C)C)C(=O)N[C@H](C(=O)NCCCC[C@H](NC(=O)CCCCCCCCCCCCCCCCC(=O)O)C(=O)O)CSCC(=O)N[C@@H](Cc2ccc(O)cc2)C(=O)N(C)[C@@H](C)C(=O)N[C@@H](CC(N)=O)C(=O)N2CCC[C@H]2C(=O)N[C@@H](CN)C(=O)N[C@@H](CC(C)C)C(=O)N2C[C@H](O)C[C@@H]2C(=O)N[C@@H](Cc2c[nH]c3ccccc23)C(=O)N[C@@H](CCN)C(=O)N[C@@H](Cc2cn(CC(=O)O)c3ccccc23)C(=O)N1C [Example 11143] ({CH2CO}-Y[NMeA]NP[Dap]L[d(cisHyp)]W[Dab][Trp(1-CH2COOH)][NMeNle][NMeNle]LC-{εLys(α-Octadecanedioyl)}; thioether N-14),0.3 to 9.9 nM
2,CCCC[C@H]1C(=O)N(C)[C@@H](CCCC)C(=O)N[C@@H](CCCNC(=N)N)C(=O)N[C@H](C(=O)NCC(=O)N[C@@H](CCN=[N+]=[N-])C(N)=O)CSCC(=O)N[C@@H](Cc2ccc(O)cc2)C(=O)N(C)[C@@H](C)C(=O)N[C@@H](CC(N)=O)C(=O)N2CCC[C@H]2C(=O)N[C@@H](CN)C(=O)N[C@@H](CC(C)C)C(=O)N2C[C@H](O)C[C@H]2C(=O)N[C@@H](Cc2c[nH]c3ccccc23)C(=O)N[C@@H](CO)C(=O)N[C@@H](Cc2csc3ccccc23)C(=O)N1C [INT 1300B] ({CH2CO}-Y[NMeA]NP[Dap]L[Hyp]WS[Bta][NMeNle][NMeNle]RCG[Aha]-NH2; thioether N-14),0.3 to 9.9 nM
3,CCCCCCCCCCC(=O)NCCCC[C@H](NC(=O)[C@H](CC(=O)O)NC(=O)[C@@H]1CSCC(=O)N[C@@H](Cc2ccc(O)cc2)C(=O)N(C)[C@@H](C)C(=O)N[C@@H](CC(=O)O)C(=O)N2CCC[C@H]2C(=O)N[C@@H](Cc2cnc[nH]2)C(=O)N[C@@H](CC(C)C)C(=O)N2C[C@H](O)C[C@H]2C(=O)N[C@@H](Cc2c[nH]c3ccccc23)C(=O)N[C@@H](CO)C(=O)N[C@@H](Cc2c[nH]c3ccccc23)C(=O)N(C)[C@@H](CCCC)C(=O)N(C)[C@@H](CCCC)C(=O)N[C@@H](CCCNC(=N)N)C(=O)N1)C(N)=O [Example 11008] ({CH2CO}-Y[NMeA]DPHL[Hyp]WSW[NMeNle][NMeNle]RCDK(Undecanoyl)-NH2; thioether N-14),100 to 1600 nM
4,CCCC[C@H]1C(=O)N(C)[C@@H](CCCC)C(=O)N[C@@H](CC(C)C)C(=O)N[C@H](C(=O)NCC(=O)N[C@@H](CC(=O)O)C(=O)N[C@@H](CC(=O)NCCCOCCOCCOCCCNC(=O)CC[C@H](NC(=O)CCCCCCCCCCCCCCCCC(=O)O)C(=O)O)C(=O)O)CSCC(=O)N[C@@H](Cc2ccc(O)cc2)C(=O)N(C)[C@@H](C)C(=O)N[C@@H](CC(N)=O)C(=O)N2CCC[C@H]2C(=O)N[C@@H](CN)C(=O)N[C@@H](CC(C)C)C(=O)N2C[C@H](O)C[C@H]2C(=O)N[C@@H](Cc2c[nH]c3ccccc23)C(=O)N[C@@H](CCN)C(=O)N[C@@H](Cc2cn(CC(=O)O)c3ccccc23)C(=O)N1C [Example 11225] ({CH2CO}-Y[NMeA]NP[Dap]L[Hyp]W[Dab][Trp(1-CH2COOH)][NMeNle][NMeNle]LCGDD(X6)-OH; thioether N-14),0.3 to 9.9 nM
5,CCCC[C@H]1C(=O)N(C)[C@@H](CCCC)C(=O)N[C@@H](CC(C)C)C(=O)N[C@H](C(=O)NCC(=O)N[C@@H](CC(=O)NCC[C@H](NC(=O)CCCCCCCCCCCCCCCCC(=O)O)C(=O)O)C(=O)O)CSCC(=O)N[C@@H](Cc2ccc(OC)cc2)C(=O)N2CCCC[C@H]2C(=O)N[C@@H](CC(=O)O)C(=O)N2CCC[C@H]2C(=O)N[C@@H](Cc2c[nH]cn2)C(=O)N[C@@H](CCC(N)=O)C(=O)N2C[C@H](O)C[C@H]2C(=O)N[C@@H](Cc2c[nH]c3ccccc23)C(=O)N[C@@H](CCN)C(=O)N[C@@H](Cc2cn(CC(=O)O)c3ccccc23)C(=O)N1C [Example 13157] ({CH2CO}-Y(Me)[Pip]DPHQ[Hyp]W[Dab][Trp(1-CH2COOH)][NMeNle][NMeNle]LCGD(X9)-OH; thioether N-14),0.3 to 9.9 nM
6,CCCC[C@H]1C(=O)N(C)[C@@H](CCCC)C(=O)N[C@@H](CC(C)C)C(=O)N[C@H](C(=O)NCC(=O)N[C@@H](CNC(=O)CC[C@H](NC(=O)CCCCCCCCCCCCCCCCC(=O)O)C(=O)O)C(=O)O)CSCC(=O)N[C@@H](Cc2ccc(O)cc2)C(=O)N(C)[C@@H](C)C(=O)N[C@@H](CC(N)=O)C(=O)N2CCC[C@H]2C(=O)N[C@@H](CN)C(=O)N[C@@H](CC(C)C)C(=O)N2C[C@H](O)C[C@H]2C(=O)N[C@@H](Cc2c[nH]c3ccccc23)C(=O)N[C@@H](CCN)C(=O)N[C@@H](Cc2cn(CC(=O)O)c3ccccc23)C(=O)N1C [Example 13153] ({CH2CO}-Y[NMeA]NP[Dap]L[Hyp]W[Dab][Trp(1-CH2COOH)][NMeNle][NMeNle]LCG[Dap]([γGlu-C18 diacid])-OH; thioether N-14),0.3 to 9.9 nM
7,CCCCCCCCCCCCCCCC(=O)NCCCC[C@H](NC(=O)[C@@H]1CSCC(=O)N[C@@H](Cc2ccc(O)cc2)C(=O)N(C)[C@@H](C)C(=O)N[C@@H](CC(N)=O)C(=O)N2CCC[C@H]2C(=O)N[C@@H](CCN)C(=O)N[C@@H](CC(C)C)C(=O)N2C[C@H](O)C[C@H]2C(=O)N[C@@H](Cc2c[nH]c3ccccc23)C(=O)N[C@@H](CO)C(=O)N[C@@H](Cc2c[nH]c3ccccc23)C(=O)N(C)[C@@H](CCCC)C(=O)N(C)[C@@H](CCCC)C(=O)N[C@@H](CCCNC(=N)N)C(=O)N1)C(N)=O [Example 11019] ({CH2CO}-Y[NMeA]NP[Dab]L[Hyp]WSW[NMeNle][NMeNle]RCK(Palmitoyl)-NH2; thioether N-14),100 to 1600 nM
8,CCCC[C@H]1C(=O)N(C)[C@@H](CCCC)C(=O)N[C@@H](CCC(=O)O)C(=O)N[C@H](C(=O)NCC(=O)N[C@@H](Cc2cn(CC[C@H](NC(=O)CCCCCCCCCCCCCCC(=O)O)C(=O)O)nn2)C(N)=O)CSCC(=O)N[C@@H](Cc2ccc(O)cc2)C(=O)N(C)[C@@H](C)C(=O)N[C@@H](CC(N)=O)C(=O)N2CCC[C@H]2C(=O)N[C@@H](CN)C(=O)N[C@@H](CC(C)C)C(=O)N2C[C@H](O)C[C@H]2C(=O)N[C@@H](Cc2c[nH]c3ccccc23)C(=O)N[C@@H](CO)C(=O)N[C@@H](Cc2cn(CC(=O)O)c3ccccc23)C(=O)N1C [Example 14070],10 to 99 nM
9,CCCC[C@H]1C(=O)N(C)[C@@H](CCCC)C(=O)N[C@@H](CC(C)C)C(=O)N[C@H](C(=O)NCCOCCOCCOCCOCCOCCOCCC(=O)NCCCCCCCCCCC(=O)O)CSCC(=O)N[C@@H](Cc2ccc(O)cc2)C(=O)N(C)[C@@H](C)C(=O)N[C@@H](CC(N)=O)C(=O)N2CCC[C@H]2C(=O)N[C@@H](CN)C(=O)N[C@@H](CCC(N)=O)C(=O)N2C[C@H](O)C[C@@H]2C(=O)N[C@@H](Cc2c[nH]c3ccccc23)C(=O)N[C@@H](CCN)C(=O)N[C@@H](Cc2cn(CC(=O)O)c3ccccc23)C(=O)N1C [Example 11061] ({CH2CO}-Y[NMeA]NP[Dap]Q[d(cisHyp)]W[Dab][Trp(1-CH2COOH)][NMeNle][NMeNle]LC[PEG6][Aun]-OH; thioether N-14),100 to 1600 nM
